Data reported in patent US20020022826A1, “Burst electrode” (priority 2000, published 2002).

Conditions: bare metal electrodes, nitrogen atmosphere
Text: Using stainless steel electrodes in aqueous NaPSS electrolyte, conditions were developed for the reproducible synthesis, loading, and release of bioactive cations from PPy/PSS films. After PPy/PSS film preparation, the polymer-modified electrodes were removed from the electrolyte, washed with water, and their redox properties studied by cyclic voltammetry (CV).

potential at which dopamine oxidizes: +0.6 V vs. Ag/AgCl
SMILES: NCCc1ccc(O)c(O)c1 [Dopamine, dopamine]
